Laboratory results reported in the supplement of paper PMC10307832.

Tests used:
Assay in all cases: relative viability (nuclei count vs DMSO), 5 days (fraction); higher = more cells survive
[1] = compound: COC1=C(C=C(C=C1)C2=CC3=NC=CN3C(=N2)NC4=C(C=CC=N4)C(=O)N)OC [BAY61-3606] + O=C(c1cc(Cc2n[nH]c(=O)c3ccccc23)ccc1F)N1CCN(C(=O)C2CC2)CC1 [Olaparib] (partner 8 µM)
Outline: (§1)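 Lung cancer cell lines, seeded in 1536-well plates, were treated the following day by pin tool with a single drug or with five library-drug doses (not always all listed) in √10 steps on top of a fixed anchor-drug dose. Cells were fixed and nuclei stained in one step after 5 days, and nuclei were counted. Relative viability is the nuclei count for treated wells divided by that for vehicle wells, reported as medians of duplicate plates.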

[2] = compound: COC1=C(C=C(C=C1)C2=CC3=NC=CN3C(=N2)NC4=C(C=CC=N4)C(=O)N)OC [BAY61-3606] + Nc1nc2[nH]cc(CCc3ccc(C(=O)N[C@@H](CCC(=O)O)C(=O)O)cc3)c2c(=O)[nH]1 [Pemetrexed] (partner 0.2 µM)
Outline: as §1

[3] = compound: COc1cccc2c1C(=O)c1c(O)c3c(c(O)c1C2=O)C[C@@](O)(C(=O)CO)C[C@@H]3O[C@H]1C[C@H](N)[C@H](O)[C@H](C)O1 [Doxorubicin] + O=C(CCCCCCC(=O)Nc1ccccc1)NO [Vorinostat] (partner 1 µM)
Outline: as §1

[4] = compound: COc1cccc2c1C(=O)c1c(O)c3c(c(O)c1C2=O)C[C@@](O)(C(=O)CO)C[C@@H]3O[C@H]1C[C@H](N)[C@H](O)[C@H](C)O1 [Doxorubicin] + CS(=O)(=O)N1CCN(Cc2cc3nc(-c4cccc5[nH]ncc45)nc(N4CCOCC4)c3s2)CC1 [Pictilisib] (partner 1 µM)
Outline: as §1

Cell Line	relative viability ([1]; first compound 0.02 µM)	relative viability ([1]; first compound 0.06325 µM)	relative viability ([1]; first compound 0.2 µM)	relative viability ([1]; first compound 0.6325 µM)	relative viability ([1]; first compound 2 µM)	relative viability ([2]; first compound 0.02 µM)	relative viability ([2]; first compound 0.06325 µM)	relative viability ([2]; first compound 0.2 µM)	relative viability ([2]; first compound 0.6325 µM)	relative viability ([2]; first compound 2 µM)	relative viability ([3]; first compound 0.001 µM)	relative viability ([3]; first compound 0.003162 µM)	relative viability ([3]; first compound 0.01 µM)	relative viability ([3]; first compound 0.03162 µM)	relative viability ([3]; first compound 0.1 µM)	relative viability ([4]; first compound 0.001 µM)	relative viability ([4]; first compound 0.003162 µM)	relative viability ([4]; first compound 0.01 µM)	relative viability ([4]; first compound 0.03162 µM)	relative viability ([4]; first compound 0.1 µM)
201T	0.833	0.842	0.865	0.838	0.824	0.358	0.366	0.339	0.325	0.32	0.892	0.996	0.96	1.06	0.942	0.666	0.648	0.658	0.719	0.68
A549	0.332	0.377	0.217	0.312	0.336	–	–	–	–	–	–	–	–	–	–	0.49	0.355	0.201	0.0558	0.0454
A-427	0.79	0.694	0.765	0.777	0.715	1.05	1.02	0.992	0.892	0.908	0.913	0.884	0.847	0.647	0.351	0.664	0.818	0.723	0.636	0.791
ABC-1	0.908	0.686	0.76	0.494	0.711	–	–	–	–	–	1.25	0.999	0.908	0.509	0.309	0.849	0.642	0.566	0.317	0.356
BEN	1.2	0.865	1.16	1.29	0.972	0.959	0.627	0.727	0.748	0.724	0.617	0.612	0.467	0.58	0.502	0.7	0.509	0.546	0.472	0.493
CAL-12T	0.748	0.773	0.735	0.758	0.53	1.29	1.38	1.22	1.22	0.742	0.928	0.808	0.488	0.228	0.153	0.508	0.559	0.402	0.343	0.25
COR-L23	0.343	0.356	0.411	0.353	0.269	0.198	0.203	0.2	0.202	0.195	0.48	0.395	0.356	0.252	0.157	0.928	1.04	0.651	0.199	0.121
COR-L 105	0.741	0.658	0.603	0.787	0.584	1.24	1.13	1.11	0.994	0.968	0.707	0.788	0.773	0.559	0.434	0.463	0.444	0.355	0.283	0.277
Calu-6	0.659	0.562	0.543	0.551	0.466	–	–	–	–	–	–	–	–	–	–	0.919	0.799	0.516	0.263	0.172
ChaGo-K-1	0.442	0.452	0.368	0.392	0.357	0.265	0.268	0.253	0.265	0.253	0.763	0.76	0.721	0.698	0.574	0.971	0.506	0.621	0.369	0.238
EBC-1	0.712	0.769	0.701	0.748	0.614	–	–	–	–	–	–	–	–	–	–	0.388	0.405	0.295	0.195	0.11
EKVX	0.99	0.999	0.798	0.91	0.782	0.439	0.368	0.401	0.495	0.346	0.764	0.889	0.762	0.724	0.794	0.453	0.444	0.399	0.434	0.429
EMC-BAC-2	0.493	0.52	0.48	0.493	0.457	0.464	0.438	0.449	0.438	0.523	0.872	0.311	0.241	0.22	0.114	0.685	0.528	0.538	0.477	0.338
EPLC-272H	0.962	0.722	0.706	0.709	0.323	0.374	0.299	0.319	0.374	0.278	0.364	0.501	0.381	0.345	0.345	0.308	0.288	0.354	0.33	0.336
H3255	0.545	0.486	0.511	0.582	0.516	0.587	0.546	0.598	0.626	0.593	–	0.913	0.698	0.88	0.428	0.481	0.482	0.415	0.452	0.48
HARA	1.02	0.929	1.06	0.845	0.619	0.25	0.253	0.236	0.221	0.238	0.593	0.482	0.547	0.589	0.432	0.444	0.439	0.434	0.357	0.294
HCC-15	0.668	0.685	0.729	0.719	0.655	0.235	0.216	0.233	0.213	0.204	0.888	0.847	0.818	0.736	0.747	0.663	0.759	0.614	0.467	0.478
